Data reported in article PMC11079024, “Identification of a family of species-selective complex I inhibitors as potential anthelmintics” (Nature Communications, 2024).
Read-outs that look alike come from different tables or passages of the source.

Experiments:
[1] = test system: L1 wild-type C. elegans; settings: for Screen "Hit": 50 μM, KCN survival assay, hit = relative motility below 0.25
[2] = in vitro; settings: human; for CC50 at 2 days: HEK293 Cell Viability Assay LC50, HEK293 cells, estimated from fitted dose-response curves, mean of at least two biological replicates; for viability at 2 days, 3.13 µM / viability at 2 days, 6.25 µM / viability at 2 days, 12.5 µM / viability at 2 days, 25 µM / viability at 2 days, 50 µM / viability at 2 days, 100 µM: HEK293 cells (Flp-In-293), HEK293 viability
[3] = test system: ben-1 mutant (ECA882) C. elegans; experiment: microbe, parasite or virus in culture; settings: Caenorhabditis elegans; for viability at 1 µM / viability at 2 µM / viability at 3.9 µM / viability at 15.6 µM / viability at 31.3 µM / viability at 62.5 µM / viability at 125 µM / viability at 250 µM / viability at 500 µM / viability at 1000 µM: read-out: C. elegans ben-1(e1880) development/viability
Procedure, shortened: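 Development and viability scored from single well images as total worm pixels divided by the matching DMSO control value, mean of ≥3 replicates. Worms added as synchronized L1s to HB101 suspension in liquid NGM with compound (1% DMSO v/v), grown 6 days at 20 °C with shaking.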

[4] = molecular target: B. taurus (heart) complex I (Bos taurus, UniProt P03887+P17694+P42026); experiment: biochemical; type: biochemical; settings: for IC50: B. taurus heart mitochondria, estimated from fitted dose-response curves, read-out: B. taurus Complex I IC50; for activity at 0.0001 µM / activity at 0.0005 µM / activity at 0.001 µM / activity at 0.0025 µM / activity at 0.005 µM / activity at 0.013 µM / activity at 0.025 µM / activity at 0.063 µM / activity at 0.125 µM / activity at 0.313 µM / activity at 0.625 µM / activity at 1.5 µM / activity at 3 µM / activity at 15 µM / activity at 37.5 µM / activity at 75 µM: read-out: B. taurus mitochondrial complex I activity; for Log IC50 B. taurus complex I: log10 of IC50 in µM, B. taurus mitochondria
Procedure, shortened: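 Complex I activity followed as DCIP reduction (600 nm, 30 s reads, 15 min) with 80 μM NADH and 60 μM decylubiquinone in 25 mM KPi pH 7.5 containing 2 μM antimycin A and 2 mM KCN. Freeze-thawed mouse or bovine heart mitochondria at 0.2 mg/mL; initial-rate percent of solvent control, single-point 100 μM or dose-response.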

[5] = Dose 0.2 µM, mean of at least three biological replicates
[6] = read-out: C. elegans (ben-1) Development & Viability Assay LC50
[7] = read-out: C. elegans ben-1 log10 LC50 (converted)

Chain of B. taurus (heart) complex I (P03887 whole entry): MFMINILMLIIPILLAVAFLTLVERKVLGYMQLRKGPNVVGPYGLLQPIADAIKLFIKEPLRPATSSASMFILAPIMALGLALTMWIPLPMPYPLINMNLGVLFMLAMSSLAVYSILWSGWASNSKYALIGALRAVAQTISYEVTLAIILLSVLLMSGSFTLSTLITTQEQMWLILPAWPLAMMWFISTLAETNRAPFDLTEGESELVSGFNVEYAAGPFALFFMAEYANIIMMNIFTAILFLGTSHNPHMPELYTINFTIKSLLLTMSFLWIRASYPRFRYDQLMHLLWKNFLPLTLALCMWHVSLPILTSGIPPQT
Chain of B. taurus (heart) complex I (P17694 34-463): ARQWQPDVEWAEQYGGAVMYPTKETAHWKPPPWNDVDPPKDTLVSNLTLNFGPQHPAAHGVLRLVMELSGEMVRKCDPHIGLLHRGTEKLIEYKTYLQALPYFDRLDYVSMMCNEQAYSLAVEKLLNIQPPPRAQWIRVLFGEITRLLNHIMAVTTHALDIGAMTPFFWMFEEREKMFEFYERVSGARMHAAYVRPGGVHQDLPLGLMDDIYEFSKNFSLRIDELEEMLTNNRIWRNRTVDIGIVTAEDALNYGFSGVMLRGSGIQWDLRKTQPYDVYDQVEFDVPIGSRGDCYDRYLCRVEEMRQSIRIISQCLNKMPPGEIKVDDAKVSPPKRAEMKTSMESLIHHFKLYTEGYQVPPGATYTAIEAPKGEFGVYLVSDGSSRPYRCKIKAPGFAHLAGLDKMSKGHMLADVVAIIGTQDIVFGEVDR
Chain of B. taurus (heart) complex I (P42026 38-216): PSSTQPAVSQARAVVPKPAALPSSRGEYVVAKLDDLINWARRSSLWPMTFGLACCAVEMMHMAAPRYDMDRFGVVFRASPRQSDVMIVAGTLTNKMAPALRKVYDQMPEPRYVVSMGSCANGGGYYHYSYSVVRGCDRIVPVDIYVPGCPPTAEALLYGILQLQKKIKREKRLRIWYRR

Cc1ccc(SCCCCn2cnc3ccccc32)cc1 [Compound 7925333]
Screen "Hit" [1]: Y (hits were identified as compounds that reduced relative motility below 0.25 (75% reduction))
C. elegans KCN Survival [1, 5]: 0.989
C. elegans KCN Survival ([1]; Dose 0.39 µM): 1.001
C. elegans KCN Survival ([1]; Dose 1.56 µM): 0.933
C. elegans KCN Survival ([1]; Dose 3.13 µM): 0.876
C. elegans KCN Survival ([1]; Dose 6.25 µM): 0.745
C. elegans KCN Survival ([1]; Dose 12.5 µM): 0.174
C. elegans KCN Survival ([1]; Dose 25 µM): 0.119
C. elegans KCN Survival ([1]; Dose 50 µM): 0.151
C. elegans KCN Survival ([1]; Dose 100 µM): 0.185
CC50 at 2 days [2]: 75.1 µM
viability at 2 days, 3.13 µM [2]: 88.6%
viability at 2 days, 6.25 µM [2]: 97%
viability at 2 days, 12.5 µM [2]: 99.2%
viability at 2 days, 25 µM [2]: 100%
viability at 2 days, 50 µM [2]: 77.2%
viability at 2 days, 100 µM [2]: 25.7%
LC50 [3, 6]: 227 µM
viability at 1 µM [3]: 92%
viability at 2 µM [3]: 100%
viability at 3.9 µM [3]: 98%
viability at 15.6 µM [3]: 90.4%
viability at 31.3 µM [3]: 93.2%
viability at 62.5 µM [3]: 77.8%
viability at 125 µM [3]: 80.7%
viability at 250 µM [3]: 53.9%
viability at 500 µM [3]: 3.6%
viability at 1000 µM [3]: 1%
LC50 [3, 7]: 227 µM
IC50 [4]: 7.31 µM
activity at 0.0001 µM [4]: 90.9%
activity at 0.0005 µM [4]: 87.2%
activity at 0.001 µM [4]: 87.5%
activity at 0.0025 µM [4]: 83.2%
activity at 0.005 µM [4]: 83.9%
activity at 0.013 µM [4]: 89.8%
activity at 0.025 µM [4]: 94.2%
activity at 0.063 µM [4]: 97.7%
activity at 0.125 µM [4]: 99.3%
activity at 0.313 µM [4]: 99.3%
activity at 0.625 µM [4]: 90.8%
activity at 1.5 µM [4]: 78.5%
activity at 3 µM [4]: 70%
activity at 15 µM [4]: 25.1%
activity at 37.5 µM [4]: 9.48%
activity at 75 µM [4]: 1.13%
Log IC50 B. taurus complex I [4]: 0.86 µM

Clc1ccc(SCCCCn2cnc3ccccc32)cc1 [Compound 7925515]
Screen "Hit" [1]: Y (hits were identified as compounds that reduced relative motility below 0.25 (75% reduction))
C. elegans KCN Survival [1, 5]: 0.966
C. elegans KCN Survival ([1]; Dose 0.39 µM): 1.005
C. elegans KCN Survival ([1]; Dose 1.56 µM): 0.967
C. elegans KCN Survival ([1]; Dose 3.13 µM): 0.917
C. elegans KCN Survival ([1]; Dose 6.25 µM): 0.704
C. elegans KCN Survival ([1]; Dose 12.5 µM): 0.109
C. elegans KCN Survival ([1]; Dose 25 µM): 0.129
C. elegans KCN Survival ([1]; Dose 50 µM): 0.146
C. elegans KCN Survival ([1]; Dose 100 µM): 0.182
CC50 at 2 days [2]: 57.3 µM
viability at 2 days, 3.13 µM [2]: 83.6%
viability at 2 days, 6.25 µM [2]: 92.4%
viability at 2 days, 12.5 µM [2]: 94.2%
viability at 2 days, 25 µM [2]: 96.8%
viability at 2 days, 50 µM [2]: 55.5%
viability at 2 days, 100 µM [2]: 12.7%
LC50 [3, 6]: 40.8 µM
viability at 1 µM [3]: 92.2%
viability at 2 µM [3]: 97%
viability at 3.9 µM [3]: 94.8%
viability at 15.6 µM [3]: 84.7%
viability at 31.3 µM [3]: 65.4%
viability at 62.5 µM [3]: 25%
viability at 125 µM [3]: 5%
viability at 250 µM [3]: 3.7%
viability at 500 µM [3]: 3.1%
viability at 1000 µM [3]: 1%
LC50 [3, 7]: 40.8 µM
IC50 [4]: 8.02 µM
activity at 0.0001 µM [4]: 102%
activity at 0.0005 µM [4]: 97.1%
activity at 0.001 µM [4]: 96.1%
activity at 0.0025 µM [4]: 95.6%
activity at 0.005 µM [4]: 88.9%
activity at 0.013 µM [4]: 95.1%
activity at 0.025 µM [4]: 90.6%
activity at 0.063 µM [4]: 95.8%
activity at 0.125 µM [4]: 98.1%
activity at 0.313 µM [4]: 94.7%
activity at 0.625 µM [4]: 97.6%
activity at 1.5 µM [4]: 86.3%
activity at 3 µM [4]: 74.8%
activity at 15 µM [4]: 26.8%
activity at 37.5 µM [4]: 5.44%
activity at 75 µM [4]: 2.46%
Log IC50 B. taurus complex I [4]: 0.90 µM

Clc1ccccc1OCCCCn1cnc2ccccc21 [Compound 7925804]
Screen "Hit" [1]: Y (hits were identified as compounds that reduced relative motility below 0.25 (75% reduction))
C. elegans KCN Survival [1, 5]: 1.043
C. elegans KCN Survival ([1]; Dose 0.39 µM): 1.064
C. elegans KCN Survival ([1]; Dose 1.56 µM): 1.052
C. elegans KCN Survival ([1]; Dose 3.13 µM): 1.018
C. elegans KCN Survival ([1]; Dose 6.25 µM): 0.644
C. elegans KCN Survival ([1]; Dose 12.5 µM): 0.155
C. elegans KCN Survival ([1]; Dose 25 µM): 0.142
C. elegans KCN Survival ([1]; Dose 50 µM): 0.136
C. elegans KCN Survival ([1]; Dose 100 µM): 0.181
CC50 at 2 days [2]: 40.2 µM
viability at 2 days, 3.13 µM [2]: 100%
viability at 2 days, 6.25 µM [2]: 99.5%
viability at 2 days, 12.5 µM [2]: 97.9%
viability at 2 days, 25 µM [2]: 73.8%
viability at 2 days, 50 µM [2]: 40.2%
viability at 2 days, 100 µM [2]: 8%
LC50 [3, 6]: 49.2 µM
viability at 1 µM [3]: 91.8%
viability at 2 µM [3]: 87.2%
viability at 3.9 µM [3]: 83.7%
viability at 15.6 µM [3]: 79%
viability at 31.3 µM [3]: 79.6%
viability at 62.5 µM [3]: 18.3%
viability at 125 µM [3]: 6.8%
viability at 250 µM [3]: 4.1%
viability at 500 µM [3]: 3.2%
viability at 1000 µM [3]: 3.8%
LC50 [3, 7]: 49.2 µM
IC50 [4]: 1.35 µM
activity at 0.0001 µM [4]: 106%
activity at 0.0005 µM [4]: 116%
activity at 0.001 µM [4]: 117%
activity at 0.0025 µM [4]: 118%
activity at 0.005 µM [4]: 118%
activity at 0.013 µM [4]: 117%
activity at 0.025 µM [4]: 116%
activity at 0.063 µM [4]: 111%
activity at 0.125 µM [4]: 99.3%
activity at 0.313 µM [4]: 90.5%
activity at 0.625 µM [4]: 75.5%
activity at 1.5 µM [4]: 54.8%
activity at 3 µM [4]: 39.2%
activity at 15 µM [4]: 9.9%
activity at 37.5 µM [4]: 3.53%
activity at 75 µM [4]: 2.37%
Log IC50 B. taurus complex I [4]: 0.13 µM
